pKi: −log10 of the molar value.
Legend:
[1] = molecular target: T1, RARγ (Homo sapiens, UniProt P13631); assay: ligand binding assay; conditions: expressed in Ki numbers, read-out: RAR Binding γ
T1 sequence (P13631 1-454): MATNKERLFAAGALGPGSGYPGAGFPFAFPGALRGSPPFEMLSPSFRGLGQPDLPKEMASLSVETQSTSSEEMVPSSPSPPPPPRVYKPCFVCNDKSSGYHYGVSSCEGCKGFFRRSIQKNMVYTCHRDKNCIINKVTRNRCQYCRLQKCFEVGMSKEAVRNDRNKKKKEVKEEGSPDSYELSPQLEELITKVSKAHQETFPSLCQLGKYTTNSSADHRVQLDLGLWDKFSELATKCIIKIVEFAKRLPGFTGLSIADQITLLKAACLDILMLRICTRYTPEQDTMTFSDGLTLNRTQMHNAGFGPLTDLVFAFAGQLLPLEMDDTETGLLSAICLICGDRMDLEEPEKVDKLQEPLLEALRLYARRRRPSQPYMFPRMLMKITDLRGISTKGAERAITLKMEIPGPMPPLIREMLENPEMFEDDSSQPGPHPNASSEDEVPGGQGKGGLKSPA
Experimental: (§1) The results obtained in this assay are expressed in EC50 numbers, as they are also in the chimeric receptor transactivation assay. The other functional assay running in the presence of 1 nM all-trans retinoic acid, namely PGA-RAR antagonist assay (utilizing glucocorticoid-retinoid chimeric receptors), is a modified chimeric receptor transactivation assay which tests the compounds for their antagonist-like activity in the RARα, RARγ and RARγ receptor subtypes.
The results of the ligand binding assay are expressed in Ki numbers.

[2] = molecular target: T2, RARβ (Homo sapiens, UniProt P10826); assay: chimeric receptor transactivation assay (agonist-like activity); type: cell-based; parameters: RAR EC50 (nM) (% Efficiency) β; conditions: read-out: RAR EC50 (nM) (% Efficiency) β
T2 sequence (P10826 183-417 limits assumed): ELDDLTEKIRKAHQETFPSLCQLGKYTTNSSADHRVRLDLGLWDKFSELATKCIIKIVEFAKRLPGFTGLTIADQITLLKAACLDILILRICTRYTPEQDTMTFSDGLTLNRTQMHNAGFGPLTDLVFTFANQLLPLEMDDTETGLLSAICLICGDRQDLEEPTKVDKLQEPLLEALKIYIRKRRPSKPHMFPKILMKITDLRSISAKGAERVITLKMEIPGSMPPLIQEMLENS
Experimental: Specifically, one assay in which the compounds were tested is a chimeric receptor transactivation assay which tests for agonist-like activity in the RARα, RARγ and RARγ receptor subtypes, and which is based on work published by Feigner P. L. and Holm M (1989) Focus, 112 is described in detail in U.S. Pat. No. 5,455,265. The specification of U.S. Pat. No. 5,455,265 is hereby expressly incorporated by reference.
(§2) A holoreceptor transactivation assay and a ligand binding assay which measure the antagonist/agonist like activity of the compounds of the invention, or their ability to bind to the several retinoid receptor subtypes, respectively, are described in published PCT Application No. WO WO93/11755 (particularly on pages 30-33 and 37-41) published on Jun. 24, 1993, the specification of which is also incorporated herein by reference. A detailed experimental procedure for holoreceptor transactivations has been described by Heyman et al. Cell 68, 397-406, (1992); Allegretto et al. J. Biol. Chem. 268, 26625-26633, and Mangelsdorf et al. The Retinoids: Biology, Chemistry and Medicine, pp 319-349, Raven Press Ltd., New York, which are expressly incorporated herein by reference. The results obtained in this assay are expressed in EC50 numbers, as they are also in the chimeric receptor transactivation assay. The other functional assay running in the presence of 1 nM all-trans retinoic acid, namely PGA-RAR antagonist assay (utilizing glucocorticoid-retinoid chimeric receptors), is a modified chimeric receptor transactivation assay which tests the compounds for their antagonist-like activity in the RARα, RARγ and RARγ receptor subtypes. The results from this assay are normally expressed in IC50 numbers (See Teng et al. J. Med. Chem. 40, 2445-2452, (1997) incorporated herein by reference.)

[3] = molecular target: T2, RARβ; assay: PGA-RAR antagonist assay (glucocorticoid-retinoid chimeric receptors); type: cell-based; parameters: other: in the presence of 1 nM all-trans retinoic acid; fused on or other part: Glucocorticoid receptor DNA-recognition part in place of RAR's own; conditions: in the presence of 1 nM all-trans retinoic acid; read-out: RAR IC50 (nM) (% Inhibition) β
Description: as §2
Percentage inhibition in an antagonist assay is expressed as a percentage of the maximum inhibition of the transaction activity induced by 1 nM all-trans retinoic acid.

[4] = molecular target: T3, RARγ (Homo sapiens, UniProt P13631); assay: as above; type: cell-based; parameters: RAR IC50 (nM) γ; other: in the presence of 1 nM all-trans retinoic acid; fused on or other part: Glucocorticoid receptor DNA-recognition part in place of RAR's own; conditions: for IC50: in the presence of 1 nM all-trans retinoic acid, read-out: RAR IC50 (nM) γ; for RAR γ (% Inhibition): percentage of the maximum inhibition of the activity induced by 1 nM all-trans retinoic acid
T3 sequence (P13631 185-419 limits assumed): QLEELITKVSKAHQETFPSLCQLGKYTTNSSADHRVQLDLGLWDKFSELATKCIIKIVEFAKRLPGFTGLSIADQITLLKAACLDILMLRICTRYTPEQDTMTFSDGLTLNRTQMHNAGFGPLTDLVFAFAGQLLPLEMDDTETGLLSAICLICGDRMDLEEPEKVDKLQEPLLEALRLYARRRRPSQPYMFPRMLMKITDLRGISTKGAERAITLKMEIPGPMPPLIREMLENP
Experimental: as §1

Row | SMILES | pKi [1] | EC50 [2] | IC50 [3] | IC50 [4] | RAR γ (% Inhibition) [4]
1 | Cc1ccc(C2=CCC(C)(C)c3cc(C(/C=C/c4ccc(C(=O)O)cc4)=NO)ccc32)cc1 (racemic) [Compound 7c, 4-[3-(8,8-Dimethyl-5-p-tolyl-7,8-dihydro-naphthalen-2-yl)-3-hydroxyimino-propenyl]-benzoic acid] | 8.22 | > 10000 nM | > 100000 nM | 2 nM | 108%
2 | Cc1ccc(C2=CCC(C)(C)c3cc(C(/C=C/c4ccc(C(=O)O)cc4)=N/O)ccc32)cc1 [Compound 7a, E-4-[3-(8,8-Dimethyl-5-p-tolyl-7,8-dihydro-naphthalen-2-yl)-3-hydroxyimino-propenyl]-benzoic acid] | 8.52 | > 10000 nM | > 1000 nM | 0.6 nM | 95%
3 | Cc1ccc(C2=CCC(C)(C)c3cc(C(/C=C/c4ccc(C(=O)O)cc4)=N\O)ccc32)cc1 [Compound 7b, Z-4-[3-(8,8-dimethyl-5-p-tolyl-7,8-dihydro-naphthalen-2-yl)-3-hydroxyimino-propenyl]-benzoic acid] | 7.54 | > 10000 nM | > 1000 nM | 25 nM | 88%

Other lines, results leading:

Row | pKi [1] | EC50 [2] | IC50 [3] | IC50 [4] | RAR γ (% Inhibition) [4] | SMILES
4 | 7.96 | > 10000 nM | > 1000 nM | 5 nM | 90% | Cc1ccc(C2=CCC(C)(C)c3cc(C(/C=C/c4ccc(C(=O)O)cc4F)=N/O)ccc32)cc1 [Compound 9a, E-4-[3-(8,8-Dimethyl-5-p-tolyl-7,8-dihydro-naphthalen-2-yl)-3-hydroxyimino-propenyl]-3-fluoro-benzoic acid]
5 | 6.88 | > 10000 nM | > 1000 nM | 13 nM | 78% | Cc1ccc(C2=CCC(C)(C)c3cc(C(/C=C/c4ccc(C(=O)O)cc4F)=N\O)ccc32)cc1 [Compound 9b, Z-4-[3-(8,8-Dimethyl-5-p-tolyl-7,8-dihydro-naphthalen-2-yl)-3-hydroxyimino-propenyl]-3-fluoro-benzoic acid]
6 | 7.60 | > 10000 nM | > 1000 nM | 27 nM | 78% | Cc1ccc(C2=CC(C)(C)c3cc(C(/C=C/c4ccc(C(=O)O)cc4)=N/O)ccc32)cc1 [Compound 16a]
7 | 6.84 | > 10000 nM | > 1000 nM | 67 nM | 54% | Cc1ccc(C2=CC(C)(C)c3cc(C(/C=C/c4ccc(C(=O)O)cc4)=N\O)ccc32)cc1 [Compound 16b]
8 | 7.15 | > 10000 nM | > 1000 nM | 52 nM | 70% | Cc1ccc(C2=CC(C)(C)c3cc(C(/C=C/c4ccc(C(=O)O)cc4F)=N/O)ccc32)cc1 [Compound 18a, E-4-[3-(3,3-Dimethyl-1-p-tolyl-3H-inden-5-yl)-3-hydroxyimino-propenyl]-3-fluoro-benzoic acid]
9 | 6.14 | > 10000 nM | > 1000 nM | 226 nM | 58% | Cc1ccc(C2=CC(C)(C)c3cc(C(/C=C/c4ccc(C(=O)O)cc4F)=N\O)ccc32)cc1 [Compound 18b, Z-4-[3-(3,3-Dimethyl-1-p-tolyl-3H-inden-5-yl)-3-hydroxyimino-propenyl]-3-fluoro-benzoic acid]
